Reference: the supplement of paper PMC11061612

Key:
Assay in all cases: combination Emax (second highest fraction inhibited in the dose matrix, 72 h); higher = more inhibition; extreme values may be limits of the assay
[1] = tested on: PC-14 (Lung Adenocarcinoma)
Procedure, shortened: (§1)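 Bliss excess equals the observed combination effect minus the expected value EA + EB − EA·EB, where EA and EB are the effects of each agent alone. Combination Emax is the second-highest inhibition within the matrix. Inhibition was scaled from CellTiter-Glo 2.0 luminescence, with 0 set by vehicle wells and 1 by blank wells, after 72 hours of two-drug dosing of cells plated in 1536-well plates.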

[2] = tested on: NKM-1 (Acute Myeloid Leukemia)
Procedure, shortened: as §1

[3] = tested on: OCI-AML5 (Acute Myeloid Leukemia)
Procedure, shortened: as §1

[4] = tested on: AsPC-1 (Pancreatic Carcinoma)
Procedure, shortened: as §1

[5] = tested on: PANC-02-03 (Pancreatic Carcinoma)
Procedure, shortened: as §1

HuO-3N1 (Osteosarcoma) = tested on: HuO-3N1 (Osteosarcoma)
Procedure, shortened: as §1

[6] = tested on: RL95-2 (Endometrial Carcinoma)
Procedure, shortened: as §1

[7] = tested on: NCI-H196 (Small Cell Lung Carcinoma)
Procedure, shortened: as §1

[8] = tested on: KYSE-70 (Esophageal Squamous Cell Carcinoma)
Procedure, shortened: as §1

[9] = tested on: Caov-3 (Ovarian Carcinoma)
Procedure, shortened: as §1

[10] = tested on: JHH-1 (Hepatocellular Carcinoma)
Procedure, shortened: as §1

[11] = tested on: NCI-H810 (Non-Small Cell Lung Carcinoma)
Procedure, shortened: as §1

[12] = tested on: RMG-I (Ovarian Carcinoma)
Procedure, shortened: as §1

786-0 (Kidney Carcinoma) = tested on: 786-0 (Kidney Carcinoma)
Procedure, shortened: as §1

[13] = tested on: RERF-LC-KJ (Lung Adenocarcinoma)
Procedure, shortened: as §1

[14] = tested on: HTC-C3 (Thyroid Gland Carcinoma)
Procedure, shortened: as §1

[15] = tested on: SK-MM-2 (Plasma Cell Myeloma)
Procedure, shortened: as §1

[16] = tested on: LOUCY (T-Lymphoblastic Leukemia)
Procedure, shortened: as §1

[17] = tested on: OV-90 (Ovarian Carcinoma)
Procedure, shortened: as §1

[18] = tested on: OVTOKO (Ovarian Carcinoma)
Procedure, shortened: as §1

SMILES	combination Emax [1]	combination Emax [2]	combination Emax [3]	combination Emax [4]	combination Emax [5]	combination Emax (HuO-3N1 (Osteosarcoma))	combination Emax [6]	combination Emax [7]	combination Emax [8]	combination Emax [9]	combination Emax [10]	combination Emax [11]	combination Emax [12]	combination Emax (786-0 (Kidney Carcinoma))	combination Emax [13]	combination Emax [14]	combination Emax [15]	combination Emax [16]	combination Emax [17]	combination Emax [18]
Cc1cc2ncnn2cc1Nc1ncc2c(n1)n(C1CCOCC1)c(=O)n2C [AZD7648] + C=CCn1c(=O)c2cnc(Nc3ccc(N4CCN(C)CC4)cc3)nc2n1-c1cccc(C(C)(C)O)n1 [AZD1775] (first compound max 10 µM, partner max 1 µM)	0.86	0.884	0.947	0.314	0.515	0.417	0.408	0.479	0.566	0.727	0.433	0.881	0.471	0.595	0.345	0.383	0.573	1	0.409	0.561
Cc1cc2ncnn2cc1Nc1ncc2c(n1)n(C1CCOCC1)c(=O)n2C [AZD7648] + CCN(CCO)CCCOc1ccc2c(Nc3cc(CC(=O)Nc4cccc(F)c4)[nH]n3)ncnc2c1 [AZD2811] (first compound max 10 µM, 7x7, partner max 1 µM)	0.312	0.605	0.969	0.267	0.254	0.35	0.595	0.185	0.238	0.885	0.113	0.643	0.466	0.215	0.455	0.202	0.313	0.948	0.323	0.232
Cc1cc2ncnn2cc1Nc1ncc2c(n1)n(C1CCOCC1)c(=O)n2C [AZD7648] + CN(C)CCCOc1ccc(-c2ccc3ncc4c(c3c2)n(C2CCOCC2)c(=O)n4C)cn1 [AZD0156] (first compound max 10 µM, 7x7, partner max 1 µM)	0.28	0.384	0.297	0.274	0.236	0.369	0.246	0.203	0.211	0.366	0.207	0.287	0.431	0.18	0.314	0.161	0.205	0.604	0.216	0.229
Cc1cc2ncnn2cc1Nc1ncc2c(n1)n(C1CCOCC1)c(=O)n2C [AZD7648] + C[C@@H]1COCCN1C2=NC(=NC(=C2)C3(CC3)[S@](=N)(=O)C)C4=C5C=CNC5=NC=C4 [AZD6738] (first compound max 10 µM, 7x7, partner max 10 µM)	0.805	0.839	0.882	0.369	0.555	0.331	0.592	0.365	0.414	0.773	0.476	0.697	0.53	0.694	0.349	0.802	0.475	1	0.489	0.344
Cc1cc2ncnn2cc1Nc1ncc2c(n1)n(C1CCOCC1)c(=O)n2C [AZD7648] + O=C(c1cc(Cc2n[nH]c(=O)c3ccccc23)ccc1F)N1CCN(C(=O)C2CC2)CC1 [Olaparib] (first compound max 10 µM, 7x7, partner max 10 µM)	0.241	0.73	0.25	0.0586	0.147	0.233	0.264	0.129	0.124	0.28	0.105	0.193	0.192	0.101	0.241	0.214	0.156	0.444	0.238	0.186
COc1cccc2c1C(=O)c1c(O)c3c(c(O)c1C2=O)C[C@@](O)(C(=O)CO)C[C@@H]3O[C@H]1C[C@H](N)[C@H](O)[C@H](C)O1 [Doxorubicin] + Cc1cc2ncnn2cc1Nc1ncc2c(n1)n(C1CCOCC1)c(=O)n2C [AZD7648] (first compound max 1 µM, 7x7, partner max 10 µM)	0.748	0.988	0.988	0.267	0.506	0.81	0.376	0.145	0.502	0.826	0.353	0.756	0.599	0.82	0.711	0.427	0.371	0.943	0.569	0.216
COc1cccc(OCCCN)c1-c1cc(Nc2cnc(C#N)cn2)n[nH]1 [Prexasertib] + C=CCn1c(=O)c2cnc(Nc3ccc(N4CCN(C)CC4)cc3)nc2n1-c1cccc(C(C)(C)O)n1 [AZD1775] (first compound max 1 µM, partner max 1 µM)	0.932	0.956	1	0.41	0.662	0.756	0.957	0.723	0.777	0.798	0.656	0.981	0.727	0.957	0.435	0.911	0.723	1	0.628	0.606
